This is an account of results in patent publication US11236078B2, “Heterocyclic inhibitors of the sodium channel” (priority 2014, dated 2022).

Format in all cases: cell-based
The target of experiment [1] is T1, human Nav1.7 (hNav1.7) (Homo sapiens, UniProt Q15858).
T1 construct: expressed in transfected cells
Description: hNav1.7 slow inactivation block, manual patchclamp. The note with it: HEK 293F cells stably expressing hNav1.7, slow inactivation induced in approximately 50% of channels.

Experiment [2] addresses T1, human Nav1.7 (hNav1.7). Description: hNav1.7 slow inactivation block, automated patchclamp. The note with it: HEK 293F cells stably expressing hNav1.7, slow inactivation induced in approximately 50% of channels.
The target in experiment [3] is T2, human Nav1.5 (hNav1.5) (Homo sapiens, UniProt Q14524).
T2 construct: expressed in transfected cells
Description: hNav1.5 slow inactivation block, manual patchclamp. The note with it: HEK 293F cells stably expressing hNav1.5. The source says: The generation of HEK 293F cell lines stably expressing human Nav1.7 (h Nav1.7), human Nav1.5 (hNav1.5) and rat Nav1.2 (r Nav1.2) was achieved by subcloning SCN9A, SCN5A, and SCN2A genes into inducible expression vectors followed by transfection into target cells using standard techniques. In the case of h Nav1.7, an expression vector encoding the human Navβ1 auxiliary subunit gene, SCN1B, was co-transfected with the expression vector bearing the SCN9A gene. Clones were selected using appropriate selection agents (0.3 mg/mL Zeocin and 0.8 mg/mL Geneticin) and maintained in Dulbecco's Modified Eagle medium, 10% fetal bovine serum, 1% non-essential amino acids to ˜80% confluence at 37° C. in a humidified incubator with 95% atmosphere and 5% CO2. […]
(§1) On the day of each experiment, cells that were grown to 80% confluence in a T75 flask were harvested for use on PatchXpress (Molecular Devices, CA, USA). Following a recovery period at 37° C. in a humidified incubator with 95% atmosphere and 5% CO2 in Dulbecco's Modified Eagle Medium, the media was replaced with an external recording solution containing (in mM): 90 TEACl, 50 NaCl, 1.8 CaCl2, 1 MgCl2, 10 HEPES, 10 glucose, adjusted to pH 7.4 with TEAOH and 300 mOsm with sucrose. The internal recording solution contained (in mM): 129 CsF, 2 MgCl2, 11 EGTA, 10 HEPES, 6 NaCl, 3 Na2ATP adjusted to pH 7.2 with CsOH and 280 mOsm with sucrose. The automated liquid handling facility of PatchXpress dispensed cells and added compound. Modulation of Nav1.7 channels by compounds was assessed by promoting the channels into the inactivated state using a conditioning voltage pulse of variable amplitude, followed by a brief hyperpolarizing pulse with a subsequent depolarized voltage step to measure the current amplitude in the presence and absence of compound.
In some cases, the potency of compounds was measured using either the Patchliner automated patch clamp platform (Nanion) or manual patch clamp techniques. Both approaches allowed the compounds to be characterized based upon the ability of a compound to modulate use- and/or state-dependence across human Nav1.7 (hNav1.7), human Nav1.5 (hNav1.5) and rat Nav1.2 (rNav1.2). The potency data is tabulated in Table 2 and is represented by six data fields. Three of the six fields represent potency data measured with the Patchliner automated platform under varying use- and state-dependent electrophysiology protocols similar to the PatchXpress protocols detailed above. For example, the second data column describes the potency of compounds in their ability to block 50% of Nav1.7 channels when the channel is repetitively activated by depolarizing voltage potentials to induce slow inactivation in approximately 50% of channels (Table 2: h Nav1.7: IC50 Slow Inactivation Block, Automated Patchclamp). The next three data fields describe the data generated from manual patchclamp electrophysiology measurements using similar methods to those employed for automated patchclamp studies.

Experiment [4] has as its target T2, human Nav1.5 (hNav1.5). Description: hNav1.5 slow inactivation block, automated patchclamp. The note with it: HEK 293F cells stably expressing hNav1.5.
From the text: The generation of HEK 293F cell lines stably expressing human Nav1.7 (h Nav1.7), human Nav1.5 (hNav1.5) and rat Nav1.2 (r Nav1.2) was achieved by subcloning SCN9A, SCN5A, and SCN2A genes into inducible expression vectors followed by transfection into target cells using standard techniques. In the case of h Nav1.7, an expression vector encoding the human Navβ1 auxiliary subunit gene, SCN1B, was co-transfected with the expression vector bearing the SCN9A gene. Clones were selected using appropriate selection agents (0.3 mg/mL Zeocin and 0.8 mg/mL Geneticin) and maintained in Dulbecco's Modified Eagle medium, 10% fetal bovine serum, 1% non-essential amino acids to ˜80% confluence at 37° C. in a humidified incubator with 95% atmosphere and 5% CO2.
Inhibition of the TTX-resistant Nav1.5 sodium channel, a key cardiac ion channel, can have profound effects on the duration and amplitude of the cardiac action potential and can result in arrhythmias and other heart malfunctions. To assess the potential cardiac liability of compounds at an early stage in the drug discovery process, a Nav1.5 sodium channel screening assay can be performed on Molecular Device's PatchXpress™ automated electrophysiology platform. Under voltage-clamp conditions, Nav1.5 currents can be recorded from HEK cells expressing the human Nav1.5 channel in the absence and presence of increasing concentrations of the test compound to obtain an IC50 value. The external recording solution can contain (in mM): 90 TEACl, 50 NaCl, 1.8 CaCl, 1 MgCl2, 10 HEPES, 10 glucose, adjusted to pH 7.4 with TEA-OH and to 300 mOsm with sucrose (if necessary), while the internal patch pipette solution contained (in mM): 129 CsF, 2 MgCl2, 11 EGTA, 10 HEPES, 3 Na2ATP adjusted to pH 7.2 with CsOH and to 290 mOsm with sucrose (if necessary). Nav1.5 channel currents can be evoked using a cardiac action potential waveform at 1 Hz, digitized at 31.25 kHz and low-pass filtered at 12 kHz.
as §1
In some cases, the potency of compounds was measured using either the Patchliner automated patch clamp platform (Nanion) or manual patch clamp techniques. Both approaches allowed the compounds to be characterized based upon the ability of a compound to modulate use- and/or state-dependence across human Nav1.7 (hNav1.7), human Nav1.5 (hNav1.5) and rat Nav1.2 (rNav1.2). The potency data is tabulated in Table 2 and is represented by six data fields. Three of the six fields represent potency data measured with the Patchliner automated platform under varying use- and state-dependent electrophysiology protocols similar to the PatchXpress protocols detailed above. […]

The target of experiment [5] is T3, rat Nav1.2 (rNav1.2) (Rattus norvegicus, UniProt P04775).
T3 construct: expressed in transfected cells
Description: rNav1.2 slow inactivation block, manual patchclamp. The note with it: HEK 293F cells stably expressing rNav1.2.

The target in experiment [6] is T3, rat Nav1.2 (rNav1.2). Description: rNav1.2 slow inactivation block, automated patchclamp. Particulars: HEK 293F cells stably expressing rNav1.2.

T2 sequence (Q14524 whole entry): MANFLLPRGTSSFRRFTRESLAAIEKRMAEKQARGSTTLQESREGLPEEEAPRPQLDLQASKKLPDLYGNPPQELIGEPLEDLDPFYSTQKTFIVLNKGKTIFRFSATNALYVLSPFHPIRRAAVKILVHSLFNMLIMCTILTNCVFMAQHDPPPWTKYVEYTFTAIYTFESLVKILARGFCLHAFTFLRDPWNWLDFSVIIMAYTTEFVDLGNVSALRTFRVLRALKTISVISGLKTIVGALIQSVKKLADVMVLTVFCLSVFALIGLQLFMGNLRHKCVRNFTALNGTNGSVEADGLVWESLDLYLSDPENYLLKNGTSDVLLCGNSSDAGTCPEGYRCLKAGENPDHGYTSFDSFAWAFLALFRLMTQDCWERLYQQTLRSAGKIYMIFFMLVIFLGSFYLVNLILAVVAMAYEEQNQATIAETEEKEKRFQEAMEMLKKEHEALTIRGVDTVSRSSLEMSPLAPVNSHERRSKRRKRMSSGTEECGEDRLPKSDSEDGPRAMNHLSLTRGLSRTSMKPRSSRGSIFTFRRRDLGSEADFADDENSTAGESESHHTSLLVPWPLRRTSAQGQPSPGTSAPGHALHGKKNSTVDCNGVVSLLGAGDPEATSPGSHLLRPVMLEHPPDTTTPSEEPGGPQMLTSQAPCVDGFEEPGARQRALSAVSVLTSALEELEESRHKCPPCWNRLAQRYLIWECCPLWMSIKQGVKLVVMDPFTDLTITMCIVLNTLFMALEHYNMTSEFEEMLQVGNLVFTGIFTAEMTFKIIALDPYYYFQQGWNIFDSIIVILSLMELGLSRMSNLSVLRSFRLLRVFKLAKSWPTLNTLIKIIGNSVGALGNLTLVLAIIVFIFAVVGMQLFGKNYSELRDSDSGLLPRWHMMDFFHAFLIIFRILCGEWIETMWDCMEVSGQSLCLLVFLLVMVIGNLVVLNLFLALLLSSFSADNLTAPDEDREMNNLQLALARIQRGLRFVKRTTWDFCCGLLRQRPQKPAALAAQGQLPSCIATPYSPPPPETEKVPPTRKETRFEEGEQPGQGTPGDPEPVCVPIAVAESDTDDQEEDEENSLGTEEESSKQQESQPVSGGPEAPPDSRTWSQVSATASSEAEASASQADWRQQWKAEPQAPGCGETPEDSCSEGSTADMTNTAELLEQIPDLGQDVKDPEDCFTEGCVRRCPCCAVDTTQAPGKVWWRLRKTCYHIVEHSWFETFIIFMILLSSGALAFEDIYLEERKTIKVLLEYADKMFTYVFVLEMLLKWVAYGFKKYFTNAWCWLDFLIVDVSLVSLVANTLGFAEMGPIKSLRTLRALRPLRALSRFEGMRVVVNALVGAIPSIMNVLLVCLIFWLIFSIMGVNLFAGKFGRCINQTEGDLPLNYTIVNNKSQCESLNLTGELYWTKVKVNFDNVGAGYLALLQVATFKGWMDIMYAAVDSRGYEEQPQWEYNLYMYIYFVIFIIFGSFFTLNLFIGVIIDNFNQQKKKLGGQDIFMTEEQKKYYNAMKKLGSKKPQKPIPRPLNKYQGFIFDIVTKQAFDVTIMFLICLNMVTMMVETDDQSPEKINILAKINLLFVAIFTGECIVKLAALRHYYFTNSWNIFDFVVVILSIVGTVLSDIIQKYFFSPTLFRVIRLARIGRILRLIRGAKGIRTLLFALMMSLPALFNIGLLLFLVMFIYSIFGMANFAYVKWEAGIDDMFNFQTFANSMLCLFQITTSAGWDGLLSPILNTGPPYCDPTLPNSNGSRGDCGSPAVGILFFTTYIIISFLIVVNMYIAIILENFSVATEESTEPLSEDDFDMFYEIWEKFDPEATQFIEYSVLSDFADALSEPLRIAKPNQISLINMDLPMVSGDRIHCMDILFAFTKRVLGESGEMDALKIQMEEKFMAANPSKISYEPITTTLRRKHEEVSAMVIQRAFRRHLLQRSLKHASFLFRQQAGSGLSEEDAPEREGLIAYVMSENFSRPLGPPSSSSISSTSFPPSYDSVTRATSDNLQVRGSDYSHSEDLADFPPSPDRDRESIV
T1 sequence (Q15858 whole entry): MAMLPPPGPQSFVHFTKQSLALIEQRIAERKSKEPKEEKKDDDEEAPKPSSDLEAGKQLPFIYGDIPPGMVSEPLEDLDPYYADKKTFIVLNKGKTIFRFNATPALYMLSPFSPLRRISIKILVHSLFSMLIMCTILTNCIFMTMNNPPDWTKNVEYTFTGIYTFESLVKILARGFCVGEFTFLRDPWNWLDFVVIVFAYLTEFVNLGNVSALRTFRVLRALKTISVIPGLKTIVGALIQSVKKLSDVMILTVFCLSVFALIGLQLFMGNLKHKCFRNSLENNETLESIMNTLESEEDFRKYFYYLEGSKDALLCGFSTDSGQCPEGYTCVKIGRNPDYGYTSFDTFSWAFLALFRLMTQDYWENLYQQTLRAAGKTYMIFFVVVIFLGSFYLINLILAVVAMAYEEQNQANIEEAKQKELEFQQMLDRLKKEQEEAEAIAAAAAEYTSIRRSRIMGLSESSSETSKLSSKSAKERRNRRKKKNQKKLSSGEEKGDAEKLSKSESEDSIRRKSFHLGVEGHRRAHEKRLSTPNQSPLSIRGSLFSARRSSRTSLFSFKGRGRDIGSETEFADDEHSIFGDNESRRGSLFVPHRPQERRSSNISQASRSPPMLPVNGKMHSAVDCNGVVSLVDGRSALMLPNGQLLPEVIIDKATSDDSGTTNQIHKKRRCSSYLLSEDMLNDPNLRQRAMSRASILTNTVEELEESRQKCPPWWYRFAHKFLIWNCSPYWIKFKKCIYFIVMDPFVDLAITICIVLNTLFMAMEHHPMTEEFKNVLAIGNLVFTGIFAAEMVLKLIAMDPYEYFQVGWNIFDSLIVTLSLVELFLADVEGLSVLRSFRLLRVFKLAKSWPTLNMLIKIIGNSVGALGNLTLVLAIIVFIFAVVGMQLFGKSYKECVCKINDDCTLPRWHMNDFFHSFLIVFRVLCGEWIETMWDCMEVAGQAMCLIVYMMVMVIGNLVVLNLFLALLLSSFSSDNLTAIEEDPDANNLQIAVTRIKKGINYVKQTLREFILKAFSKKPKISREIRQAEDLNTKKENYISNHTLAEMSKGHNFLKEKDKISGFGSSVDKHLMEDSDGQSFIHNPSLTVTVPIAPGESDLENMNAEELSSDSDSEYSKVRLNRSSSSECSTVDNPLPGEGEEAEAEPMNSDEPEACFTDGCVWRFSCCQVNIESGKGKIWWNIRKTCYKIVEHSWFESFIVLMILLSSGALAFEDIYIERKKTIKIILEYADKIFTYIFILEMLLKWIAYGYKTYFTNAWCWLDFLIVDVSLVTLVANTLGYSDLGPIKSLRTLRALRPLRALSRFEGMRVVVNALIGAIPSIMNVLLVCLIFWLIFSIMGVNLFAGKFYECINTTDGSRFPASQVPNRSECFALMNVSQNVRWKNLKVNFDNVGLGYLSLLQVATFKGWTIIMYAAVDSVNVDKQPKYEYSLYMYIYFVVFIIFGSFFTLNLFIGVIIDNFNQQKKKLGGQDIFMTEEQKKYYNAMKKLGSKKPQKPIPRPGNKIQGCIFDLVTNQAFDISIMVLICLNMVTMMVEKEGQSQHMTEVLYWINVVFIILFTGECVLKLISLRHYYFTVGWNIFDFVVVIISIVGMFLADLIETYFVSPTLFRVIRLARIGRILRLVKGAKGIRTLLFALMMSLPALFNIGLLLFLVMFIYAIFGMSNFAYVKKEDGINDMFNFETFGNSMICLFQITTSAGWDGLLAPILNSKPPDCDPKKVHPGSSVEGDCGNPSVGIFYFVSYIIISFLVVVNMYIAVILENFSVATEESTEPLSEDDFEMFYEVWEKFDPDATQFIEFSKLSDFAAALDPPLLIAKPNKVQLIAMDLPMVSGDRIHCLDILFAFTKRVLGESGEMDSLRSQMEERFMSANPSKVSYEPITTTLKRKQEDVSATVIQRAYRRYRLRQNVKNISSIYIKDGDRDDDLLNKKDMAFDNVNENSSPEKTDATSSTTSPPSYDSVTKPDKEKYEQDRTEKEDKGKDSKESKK
T1 sequence (Q07699 19-218 partner): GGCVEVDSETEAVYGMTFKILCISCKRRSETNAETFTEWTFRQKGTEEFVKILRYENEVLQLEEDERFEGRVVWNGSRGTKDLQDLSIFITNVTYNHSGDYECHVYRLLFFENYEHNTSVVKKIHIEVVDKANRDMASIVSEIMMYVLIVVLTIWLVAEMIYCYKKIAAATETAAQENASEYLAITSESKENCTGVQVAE

`O=S(=O)(Nc1ncns1)c1cc(F)c(Oc2cc(N3CCC3)cc(C(F)(F)F)c2)cc1F` [Compound 48, 4-[3-(azetidin-1-yl)-5-(trifluoromethyl)phenoxy]-2,5-difluoro-N-(1,2,4-thiadiazol-5-yl)benzenesulfonamide]: the 50% inhibitory concentration (IC50) on human Nav1.7 (hNav1.7) [1] was 142 nM; at human Nav1.7 (hNav1.7) [2], roughly 3060 nM; against human Nav1.5 (hNav1.5) [3] it was roughly 650 nM; at human Nav1.5 (hNav1.5) [4], roughly 6660 nM.
In the case of `O=S(=O)(Nc1ncns1)c1cc(F)c(Oc2cc(N3CC(O)C3)cc(C(F)(F)F)c2)cc1F` [Compound 49, 2,5-difluoro-4-[3-(3-hydroxyazetidin-1-yl)-5-(trifluoromethyl)phenoxy]-N-(1,2,4-thiadiazol-5-yl)benzenesulfonamide], the IC50 on human Nav1.7 (hNav1.7) [1] was 404 nM; at human Nav1.7 (hNav1.7) [2], roughly 7680 nM; on human Nav1.5 (hNav1.5) [3] it was 1600 nM; against human Nav1.5 (hNav1.5) [4], roughly 17200 nM.
Consider `O=C(NCc1cccc(-c2cc(C(F)(F)F)cc(C(F)(F)F)c2)c1)[C@@H]1C[C@H](F)CN1` [Compound 52, (2S,4S)-N-((3′,5′-bis(trifluoromethyl)-[1,1′-biphenyl]-3-yl)methyl)-4-fluoropyrrolidine-2-carboxamide], for which the half-inhibitory concentration (IC50) against human Nav1.7 (hNav1.7) [1] amounted to 466 nM; at human Nav1.7 (hNav1.7) [2] it was 4440 nM; at rat Nav1.2 (rNav1.2) [5], 928 nM; on rat Nav1.2 (rNav1.2) [6] it was 5540 nM; against human Nav1.5 (hNav1.5) [3], 1040 nM; at human Nav1.5 (hNav1.5) [4], 4050 nM.
